Laboratory results from patent publication US12060355B2, “Compounds for use in the treatment of fascioliasis” (Merck Patent GmbH, priority 2018, dated 2024).
Read-outs that look alike come from different tables or passages of the source. Values belong to the molecule of their own block, whether it stands above or below them.

Tests used:
[1] = tested on: S. mansoni juvenile worms; assay: S. mansoni juvenile worm assay, in vitro; type: cell-based; conditions: Schistosoma mansoni, read-out: S. mansoni Juvenile
Experimental: (§1) The routine biological assays using adult or juvenile S. mansoni worms and cytotoxicity assays using MRC-5 cells have been disclosed previously in Mansour, N. R., et al. (2016). “High Throughput Screening Identifies Novel Lead Compounds with Activity against Larval, Juvenile and Schistosoma mansoni PLoS Negl Trop Dis 10(4): e0004659. Cytotoxicity assays using the HepG2 cell line were carried out as described in Molecular Diversity (2015) 19, 251-261. • (a) F. hepatica adult fluke motility score tested at 5 μM. Motility is scored as per the table below: • Good movement Score 1 • (Curled, sticking on wall, movement on petri plate or conical flask) • Moderate movement Score 2 • (Less vigor but more than 10 seconds pulses or peristaltic waves) • Resting Score 3 • (Less than 10 second pulses in head and body) • Apathetic Score 4 • (Head and body with less than 2 second pulses) • Faint movement of suckers Score 5 • (Movement of oral or ventral suckers only, whole body paralyzed) • Inert Score 6 • (No movement at all or dead) • (b) S. mansoni adult worms • (c) S. mansoni juvenile worms • (d) S. haemotobium adult worms • (e) Cytotoxicity against human MRC-5 cell line • (f) Cytotoxicity against human HepG2 cell lines

human MRC-5 cell line = assay: Cytotoxicity against human MRC-5 cell line; type: cell-based
Experimental: as §1

human HepG2 cell lines = type: cell-based; conditions: human HepG2 cell line
F. hepatica adult fluke = F. hepatica adult fluke motility score, in vitro; type: cell-based, Fasciola hepatica; set-up: key: Good movement Score 1 • (Curled, sticking on wall, movement on petri plate or conical flask); Moderate movement Score 2 • (Less vigor but more than 10 seconds pulses or peristaltic waves); Resting Score 3 • (Less than 10 second pulses in head and body); Apathetic Score 4 • (Head and body with less than 2 second pulses); Faint movement of suckers Score 5 • (Movement of oral or ventral suckers only, whole body paralyzed); Inert Score 6 • (No movement at all or dead); conditions: for F. hepatica motility score after 24 h / F. hepatica motility score after 48 h / F. hepatica motility score after 72 h: adult fluke
From the text: The routine biological assays using adult liver fluke are described in Alessandra Crusco, Cinzia Bordoni, Anand Chakroborty, Kezia C. L. Whatley, Helen Whiteland, Andrew D. Westwell, Karl F. Hoffmann, “Design, synthesis and anthelmintic activity of 7-keto-sempervirol analogues”, European Journal of Medicinal Chemistry, Volume 152, 2018, Pages 87-100.
The routine biological assays using adult or juvenile S. mansoni worms and cytotoxicity assays using MRC-5 cells have been disclosed previously in Mansour, N. R., et al. (2016). “High Throughput Screening Identifies Novel Lead Compounds with Activity against Larval, Juvenile and Schistosoma mansoni PLoS Negl Trop Dis 10(4): e0004659. […] Motility is scored as per the table below: • Good movement Score 1 • (Curled, sticking on wall, movement on petri plate or conical flask) • Moderate movement Score 2 • (Less vigor but more than 10 seconds pulses or peristaltic waves) • Resting Score 3 • (Less than 10 second pulses in head and body) • Apathetic Score 4 • (Head and body with less than 2 second pulses) • Faint movement of suckers Score 5 • (Movement of oral or ventral suckers only, whole body paralyzed) • Inert Score 6 • (No movement at all or dead) • (b) S. mansoni adult worms • (c) S. mansoni juvenile worms • (d) S. haemotobium adult worms • (e) Cytotoxicity against human MRC-5 cell line • (f) Cytotoxicity against human HepG2 cell lines

[2] = 5 μM, score 1 (good movement) to 6 (inert)

IC50 ([1]; juvenile worms in vitro, IC50): 0.53 µM
Structure (SMILES): COc1ccc(-c2c(C)nc3ccc(-c4cccc(C(F)(F)F)c4)cn23)cc1O [Example 91, 2-methoxy-5-[2-methyl-6-[3-(trifluoromethyl)phenyl]imidazo[1,2-a]pyridin-3-yl]phenol]

Structure (SMILES): CCc1nc2cnc(-c3cccc(C(F)(F)F)c3)cn2c1-c1ccc(O)cc1F [Example 8, 3-fluoro-4-[2-ethyl-6-[3-(trifluoromethyl)phenyl]imidazo[1,2-a]pyrazin-3-yl]phenol]
Cytotox MRC-5 (human MRC-5 cell line): 17.3 µM
Cytotox HepG2 (human HepG2 cell lines): 18.7 µM

Structure (SMILES): CC(C)c1nn2cnc(-c3ccc(F)c(C(F)(F)F)c3)cc2c1-c1c(F)cc(O)cc1F [Example 47, 3,5-difluoro-4-(5-(4-fluoro-3-(trifluoromethyl)phenyl)-2-isopropylpyrazolo[1,5-c]pyrimidin-3-yl)phenol]
F. hepatica motility score after 24 h (F. hepatica adult fluke; [2]): (6, 6, 6) at 5 μM
F. hepatica motility score after 48 h (F. hepatica adult fluke; 5 μM, score 1 to 6 (inert)): (6, 6, 6) at 5 μM
F. hepatica motility score after 72 h (F. hepatica adult fluke; 5 μM, score 1 to 6 (inert)): (6, 6, 6) at 5 μM
Cytotox HepG2 (human HepG2 cell lines): 8.9 µM

Structure (SMILES): Cc1nc2cnc(-c3ccc(F)c(C(F)(F)F)c3)cn2c1-c1ccc(O)cc1F [Example 10, 3-fluoro-4-[2-methyl-6-[4-fluoro-3-(trifluoromethyl)phenyl]imidazo[1,2-a]pyrazin-3-yl]phenol]
Cytotox MRC-5 (human MRC-5 cell line): 14.4 µM
Cytotox HepG2 (human HepG2 cell lines): >11.1 µM

IC50 ([1]; juvenile worms in vitro, IC50): 0.83 µM
Structure (SMILES): Cc1nc2ccc(-c3cccc(C(F)(F)F)c3)cn2c1-c1ccc(O)cc1F [Example 93, 3-fluoro-4-[2-methyl-6-[3-(trifluoromethyl)phenyl]imidazo[1,2-a]pyridin-3-yl]phenol]

IC50 ([1]; juvenile worms in vitro, IC50): 0.36 µM
Structure (SMILES): COc1ccc(-c2c(C(C)C)nc3ccc(-c4cccc(C(F)(F)F)c4)cn23)cc1O [Example 92, 2-methoxy-5-[2-isopropyl-6-[3-(trifluoromethyl)phenyl]imidazo[1,2-a]pyridin-3-yl]phenol]

Structure (SMILES): CSc1nc2cc(Cl)c(Oc3cccc(Cl)c3Cl)cc2[nH]1 [Triclabendazole, reference compound]
Mean motility score of F hepatica at 24 h (F. hepatica adult fluke; 40 μM): 2
Mean motility score of F hepatica at 48 h (F. hepatica adult fluke; 40 μM): 3.5
Mean motility score of F hepatica at 72 h (F. hepatica adult fluke; 40 μM): 6
F. hepatica motility score after 24 h (F. hepatica adult fluke; 40 μM, score 1 to 6 (inert)): 3
F. hepatica motility score after 48 h (F. hepatica adult fluke; 40 μM, score 1 to 6 (inert)): 6
F. hepatica motility score after 72 h (F. hepatica adult fluke; 40 μM, score 1 to 6 (inert)): 6

Structure (SMILES): O=P(O)(O)Oc1cc(F)c(-c2c(C3CC3)nc3cnc(-c4ccc(F)c(C(F)(F)F)c4)cn23)c(F)c1 [Example 62, Phosphoric acid mono-{4-[2-cyclopropyl-6-(4-fluoro-3-trifluoromethyl-phenyl)-imidazo[1,2-a]pyrazin-3-yl]-3,5-difluoro-phenyl} ester]
IC50 [1]: 0.0037 µM
Cytotox HepG2 (human HepG2 cell lines): 14.8 µM

Structure (SMILES): COc1ccc(-c2c(C(C)C)nc3cnc(-c4cccc(C(F)(F)F)c4)cn23)cc1OP(=O)(O)O [Example 28, 2-methoxy-5-[2-(propan-2-yl)-6-[3-(trifluoromethyl)phenyl]imidazo[1,2-a]pyrazin-3-yl]phenoxyphosphonic acid]
IC50 [1]: 0.183 µM
Cytotox HepG2 (human HepG2 cell lines): 19.2 µM

Structure (SMILES): COc1ccc(-c2c(C(C)C)nc3cnc(-c4cccc(C(F)(F)F)c4)cn23)cc1O [Example 1, 2-methoxy-5-[2-(propan-2-yl)-6-[3-(trifluoromethyl)phenyl]imidazo[1,2-a]pyrazin-3-yl]phenol]
Cytotox MRC-5 (human MRC-5 cell line): 21.8 µM
Cytotox HepG2 (human HepG2 cell lines): >11.1 µM

Structure (SMILES): Fc1ccc(-c2cn3c(-c4ccc5[nH]ncc5c4F)c(C(F)(F)F)nc3cn2)cc1C(F)(F)F [Example 50, 3-(4-Fluoro-1H-indazol-5-yl)-6-(4-fluoro-3-trifluoromethylphenyl)-2-trifluoromethyl-imidazo[1,2-a]pyrazine]
Mean motility score of F hepatica at 24 h (F. hepatica adult fluke; 0.04 μM): 1, 1, 1
Mean motility score of F hepatica at 48 h (F. hepatica adult fluke; 0.04 μM): 1, 1, 1
Mean motility score of F hepatica at 72 h (F. hepatica adult fluke; 0.04 μM): 1, 1, 1
Mean motility score of F hepatica at 24 h (F. hepatica adult fluke; 0.2 μM): 2
Mean motility score of F hepatica at 48 h (F. hepatica adult fluke; 0.2 μM): 2
Mean motility score of F hepatica at 72 h (F. hepatica adult fluke; 0.2 μM): 2.5
Mean motility score of F hepatica at 24 h (F. hepatica adult fluke; 1 μM): 6, 6, 6
Mean motility score of F hepatica at 48 h (F. hepatica adult fluke; 1 μM): 6, 6, 6
Mean motility score of F hepatica at 72 h (F. hepatica adult fluke; 1 μM): 6, 6, 6
Mean motility score of F hepatica at 24 h (F. hepatica adult fluke; 5 μM): 6, 6, 6
Mean motility score of F hepatica at 48 h (F. hepatica adult fluke; 5 μM): 6, 6, 6
Mean motility score of F hepatica at 72 h (F. hepatica adult fluke; 5 μM): 6, 6, 6
F. hepatica motility score after 24 h (F. hepatica adult fluke; [2]): (6, 6, 6) at 5 μM
F. hepatica motility score after 48 h (F. hepatica adult fluke; 5 μM, score 1 to 6 (inert)): (6, 6, 6) at 5 μM
F. hepatica motility score after 72 h (F. hepatica adult fluke; 5 μM, score 1 to 6 (inert)): (6, 6, 6) at 5 μM

IC50 ([1]; juvenile worms in vitro, IC50): 0.25 µM
Structure (SMILES): CC(C)c1nc2ccc(-c3cccc(C(F)(F)F)c3)cn2c1-c1ccc(O)cc1F [Example 94, 3-fluoro-4-[2-isopropyl-6-[3-(trifluoromethyl)phenyl]imidazo[1,2-a]pyridin-3-yl]phenol]
F. hepatica motility score after 24 h (F. hepatica adult fluke; [2]): (6, 6, 6)
F. hepatica motility score after 48 h (F. hepatica adult fluke; 5 μM, score 1 to 6 (inert)): (6, 6, 6)
F. hepatica motility score after 72 h (F. hepatica adult fluke; 5 μM, score 1 to 6 (inert)): (6, 6, 6)
Cytotox HepG2 (human HepG2 cell lines): 10.6 µM

Structure (SMILES): Cc1nc2cnc(-c3cccc(C(F)(F)F)c3)cn2c1-c1ccc(O)cc1F [Example 6, 3-fluoro-4-[2-methyl-6-[3-(trifluoromethyl)phenyl]imidazo[1,2-a]pyrazin-3-yl]phenol]
Cytotox MRC-5 (human MRC-5 cell line): 15.8 µM

Structure (SMILES): CC(C)c1nc2cnc(-c3ccc(F)c(C(F)(F)F)c3)nc2n1-c1c(F)cc(O)cc1F [Example 89, 3,5-Difluoro-4-[2-(4-fluoro-3-trifluoromethyl-phenyl)-8-isopropyl-purin-9-yl]-phenol]
F. hepatica motility score after 24 h (F. hepatica adult fluke; [2]): (6, 6, 6)
F. hepatica motility score after 48 h (F. hepatica adult fluke; 5 μM, score 1 to 6 (inert)): (6, 6, 6)
F. hepatica motility score after 72 h (F. hepatica adult fluke; 5 μM, score 1 to 6 (inert)): (6, 6, 6)
Cytotox HepG2 (human HepG2 cell lines): 4.8 µM

Structure (SMILES): CC(C)c1nc2cnc(-c3cccc(C(F)(F)F)c3)cn2c1-c1ccc(O)cc1F [Example 9, 3-fluoro-4-[2-(propan-2-yl)-6-[3-(trifluoromethyl)phenyl]imidazo[1,2-a]pyrazin-3-yl]phenol]
Cytotox MRC-5 (human MRC-5 cell line): 13.7 µM
Cytotox HepG2 (human HepG2 cell lines): 9 µM

Structure (SMILES): Cc1nc2cnc(-c3ccc(F)c(C(F)(F)F)c3)cn2c1-c1c(F)cc(OP(=O)(O)O)cc1F [Example 41, 3,5-difluoro-4-{6-[4-fluoro-3-(trifluoromethyl)phenyl]-2-methyl-imidazo[1,2-a]pyrazin-3-yl}phenoxyphosphonic acid]
IC50 [1]: 0.1 µM
Cytotox HepG2 (human HepG2 cell lines): 6.8 µM

IC50 ([1]; juvenile worms in vitro, IC50): 0.83 µM
Structure (SMILES): Cc1n[nH]c2ccc(-c3c(C(C)C)nc4cnc(-c5cccc(C(F)(F)F)c5)cn34)cc12 [Example 51, 2-Isopropyl-3-(3-methyl-1H-indazol-5-yl)-6-(3-trifluoromethyl-phenyl)-imidazo[1,2-a]pyrazine]
Cytotox HepG2 (human HepG2 cell lines): 10.3 µM

Structure (SMILES): COc1ccc(-c2c(C(F)(F)F)nc3cnc(-c4cccc(C(F)(F)C(F)(F)F)c4)cn23)cc1O [Example 30, 2-methoxy-5-[2-(trifluoromethyl)-6-[3-(pentafluoroethyl)phenyl]imidazo[1,2-a]pyrazin-3-yl]phenol]
Cytotox HepG2 (human HepG2 cell lines): 11.1 µM

Structure (SMILES): CC(C)Oc1cc(-c2cn3c(-c4ccc5[nH]ncc5c4F)c(C(F)(F)F)nc3cn2)ccc1F [Example 81, 3-(4-Fluoro-1H-indazol-5-yl)-6-(4-fluoro-3-isopropoxy-phenyl)-2-trifluoromethyl-imidazo[1,2-a]pyrazine]
Cytotox HepG2 (human HepG2 cell lines): 9.2 µM

Structure (SMILES): CC(C)c1cc(-c2cn3c(-c4ccc5[nH]ncc5c4F)c(C(C)C)nc3cn2)ccc1F [Example 74, 3-(4-Fluoro-1H-indazol-5-yl)-6-(4-fluoro-3-isopropyl-phenyl)-2-isopropyl-imidazo[1,2-a]pyrazine]
Cytotox HepG2 (human HepG2 cell lines): 11.0 µM

Structure (SMILES): CC(C)c1nc2cnc(-c3cccc(C(F)(F)F)c3)cn2c1-c1c(F)cc(O)cc1F [Example 19, 3,5-difluoro-4-[2-(propan-2-yl)-6-[3-(trifluoromethyl)phenyl]imidazo[1,2-a]pyrazin-3-yl]phenol]
Cytotox HepG2 (human HepG2 cell lines): 7.5 µM
